Tests used:
Format in all cases: cell-based
Nav 1.5 = Nav 1.5 (Homo sapiens (Human), UniProt Q14524); assay: Nav 1.5 in vitro assay, IonWorks Quattro (IWQ) population patch-clamp; settings: HEK 293 cells stably transfected with Nav 1.5; 26th pulse to -20 mV
Nav 1.7 [1] = molecular target: T1, Nav 1.7 (Homo sapiens (Human), UniProt Q15858); assay: Nav 1.7 in vitro PX assay, PatchXpress whole cell voltage clamp; settings: HEK 293 cells stably transfected with human Nav1.7; for inhibition at 4.9 µM: HEK293, values marked *, read-out: Nav 1.7 PX percent inhibition at 4.9 μM; for IC50: partially inactivated state (20 to 50% inactivation)
T1 sequence (Q15858 whole entry): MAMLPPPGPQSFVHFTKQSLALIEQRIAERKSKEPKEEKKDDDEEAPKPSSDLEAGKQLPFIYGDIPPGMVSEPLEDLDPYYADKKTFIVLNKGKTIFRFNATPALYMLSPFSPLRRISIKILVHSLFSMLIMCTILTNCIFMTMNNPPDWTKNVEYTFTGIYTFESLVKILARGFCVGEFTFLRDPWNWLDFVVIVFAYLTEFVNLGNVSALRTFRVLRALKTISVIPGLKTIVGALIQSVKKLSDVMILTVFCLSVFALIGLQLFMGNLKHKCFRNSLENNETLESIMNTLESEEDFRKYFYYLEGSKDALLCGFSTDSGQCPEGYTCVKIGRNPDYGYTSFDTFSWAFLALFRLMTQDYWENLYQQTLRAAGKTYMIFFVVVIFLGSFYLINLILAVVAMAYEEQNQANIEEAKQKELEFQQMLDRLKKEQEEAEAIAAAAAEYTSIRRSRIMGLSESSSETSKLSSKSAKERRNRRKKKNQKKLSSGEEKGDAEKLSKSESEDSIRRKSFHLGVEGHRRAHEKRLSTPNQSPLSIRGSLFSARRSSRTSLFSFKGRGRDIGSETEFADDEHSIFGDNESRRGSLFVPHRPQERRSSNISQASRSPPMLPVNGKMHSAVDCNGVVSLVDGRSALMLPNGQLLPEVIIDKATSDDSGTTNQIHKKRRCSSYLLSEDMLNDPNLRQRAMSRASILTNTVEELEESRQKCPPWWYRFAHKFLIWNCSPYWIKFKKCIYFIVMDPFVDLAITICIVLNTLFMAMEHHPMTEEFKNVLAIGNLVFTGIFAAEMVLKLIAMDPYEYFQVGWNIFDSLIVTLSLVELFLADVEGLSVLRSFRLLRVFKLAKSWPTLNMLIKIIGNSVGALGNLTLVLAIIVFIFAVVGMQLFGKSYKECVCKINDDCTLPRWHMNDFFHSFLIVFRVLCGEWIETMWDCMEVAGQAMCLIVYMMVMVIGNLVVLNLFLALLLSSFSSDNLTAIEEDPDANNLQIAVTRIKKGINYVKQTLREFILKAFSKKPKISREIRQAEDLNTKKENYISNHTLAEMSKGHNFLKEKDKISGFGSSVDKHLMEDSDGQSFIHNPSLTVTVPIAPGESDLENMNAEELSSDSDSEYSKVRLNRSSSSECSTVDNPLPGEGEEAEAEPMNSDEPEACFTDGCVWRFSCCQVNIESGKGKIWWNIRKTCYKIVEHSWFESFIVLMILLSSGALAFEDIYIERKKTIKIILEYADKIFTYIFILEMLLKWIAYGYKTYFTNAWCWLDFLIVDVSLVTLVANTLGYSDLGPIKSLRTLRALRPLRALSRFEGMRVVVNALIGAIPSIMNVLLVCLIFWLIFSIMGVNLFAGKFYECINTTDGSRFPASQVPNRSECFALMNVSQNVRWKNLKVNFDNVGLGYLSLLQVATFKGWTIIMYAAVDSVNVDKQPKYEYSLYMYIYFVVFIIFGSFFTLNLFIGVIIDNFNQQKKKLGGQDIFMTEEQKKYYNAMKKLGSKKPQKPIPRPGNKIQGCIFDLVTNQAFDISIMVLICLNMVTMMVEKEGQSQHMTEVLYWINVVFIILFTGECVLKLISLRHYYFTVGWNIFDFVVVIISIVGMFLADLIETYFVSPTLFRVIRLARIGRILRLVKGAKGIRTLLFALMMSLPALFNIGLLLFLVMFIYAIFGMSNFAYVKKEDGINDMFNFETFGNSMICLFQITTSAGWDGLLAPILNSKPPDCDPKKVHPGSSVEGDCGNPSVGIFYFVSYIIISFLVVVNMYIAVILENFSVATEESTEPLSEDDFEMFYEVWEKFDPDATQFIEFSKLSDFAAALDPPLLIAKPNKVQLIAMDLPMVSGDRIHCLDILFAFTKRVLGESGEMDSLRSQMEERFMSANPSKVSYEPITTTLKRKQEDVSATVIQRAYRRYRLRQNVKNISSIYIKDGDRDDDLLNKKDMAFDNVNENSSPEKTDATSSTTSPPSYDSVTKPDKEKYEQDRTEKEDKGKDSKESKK
Outline: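 Partially inactivated channels (20–50% inactivation at holding potential) were probed on automated patch clamp in stably transfected HEK293 cells, stepping to −10 mV for 20 msec every 10 s (0.1 Hz).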

Nav 1.7 [2] = molecular target: T1, Nav 1.7; assay: Nav 1.7 in vitro assay, IonWorks Quattro (IWQ) population patch-clamp; settings: HEK 293 cells stably transfected with Nav 1.7; 26th pulse to -20 mV

Chain of Nav 1.5 (Q14524 whole entry): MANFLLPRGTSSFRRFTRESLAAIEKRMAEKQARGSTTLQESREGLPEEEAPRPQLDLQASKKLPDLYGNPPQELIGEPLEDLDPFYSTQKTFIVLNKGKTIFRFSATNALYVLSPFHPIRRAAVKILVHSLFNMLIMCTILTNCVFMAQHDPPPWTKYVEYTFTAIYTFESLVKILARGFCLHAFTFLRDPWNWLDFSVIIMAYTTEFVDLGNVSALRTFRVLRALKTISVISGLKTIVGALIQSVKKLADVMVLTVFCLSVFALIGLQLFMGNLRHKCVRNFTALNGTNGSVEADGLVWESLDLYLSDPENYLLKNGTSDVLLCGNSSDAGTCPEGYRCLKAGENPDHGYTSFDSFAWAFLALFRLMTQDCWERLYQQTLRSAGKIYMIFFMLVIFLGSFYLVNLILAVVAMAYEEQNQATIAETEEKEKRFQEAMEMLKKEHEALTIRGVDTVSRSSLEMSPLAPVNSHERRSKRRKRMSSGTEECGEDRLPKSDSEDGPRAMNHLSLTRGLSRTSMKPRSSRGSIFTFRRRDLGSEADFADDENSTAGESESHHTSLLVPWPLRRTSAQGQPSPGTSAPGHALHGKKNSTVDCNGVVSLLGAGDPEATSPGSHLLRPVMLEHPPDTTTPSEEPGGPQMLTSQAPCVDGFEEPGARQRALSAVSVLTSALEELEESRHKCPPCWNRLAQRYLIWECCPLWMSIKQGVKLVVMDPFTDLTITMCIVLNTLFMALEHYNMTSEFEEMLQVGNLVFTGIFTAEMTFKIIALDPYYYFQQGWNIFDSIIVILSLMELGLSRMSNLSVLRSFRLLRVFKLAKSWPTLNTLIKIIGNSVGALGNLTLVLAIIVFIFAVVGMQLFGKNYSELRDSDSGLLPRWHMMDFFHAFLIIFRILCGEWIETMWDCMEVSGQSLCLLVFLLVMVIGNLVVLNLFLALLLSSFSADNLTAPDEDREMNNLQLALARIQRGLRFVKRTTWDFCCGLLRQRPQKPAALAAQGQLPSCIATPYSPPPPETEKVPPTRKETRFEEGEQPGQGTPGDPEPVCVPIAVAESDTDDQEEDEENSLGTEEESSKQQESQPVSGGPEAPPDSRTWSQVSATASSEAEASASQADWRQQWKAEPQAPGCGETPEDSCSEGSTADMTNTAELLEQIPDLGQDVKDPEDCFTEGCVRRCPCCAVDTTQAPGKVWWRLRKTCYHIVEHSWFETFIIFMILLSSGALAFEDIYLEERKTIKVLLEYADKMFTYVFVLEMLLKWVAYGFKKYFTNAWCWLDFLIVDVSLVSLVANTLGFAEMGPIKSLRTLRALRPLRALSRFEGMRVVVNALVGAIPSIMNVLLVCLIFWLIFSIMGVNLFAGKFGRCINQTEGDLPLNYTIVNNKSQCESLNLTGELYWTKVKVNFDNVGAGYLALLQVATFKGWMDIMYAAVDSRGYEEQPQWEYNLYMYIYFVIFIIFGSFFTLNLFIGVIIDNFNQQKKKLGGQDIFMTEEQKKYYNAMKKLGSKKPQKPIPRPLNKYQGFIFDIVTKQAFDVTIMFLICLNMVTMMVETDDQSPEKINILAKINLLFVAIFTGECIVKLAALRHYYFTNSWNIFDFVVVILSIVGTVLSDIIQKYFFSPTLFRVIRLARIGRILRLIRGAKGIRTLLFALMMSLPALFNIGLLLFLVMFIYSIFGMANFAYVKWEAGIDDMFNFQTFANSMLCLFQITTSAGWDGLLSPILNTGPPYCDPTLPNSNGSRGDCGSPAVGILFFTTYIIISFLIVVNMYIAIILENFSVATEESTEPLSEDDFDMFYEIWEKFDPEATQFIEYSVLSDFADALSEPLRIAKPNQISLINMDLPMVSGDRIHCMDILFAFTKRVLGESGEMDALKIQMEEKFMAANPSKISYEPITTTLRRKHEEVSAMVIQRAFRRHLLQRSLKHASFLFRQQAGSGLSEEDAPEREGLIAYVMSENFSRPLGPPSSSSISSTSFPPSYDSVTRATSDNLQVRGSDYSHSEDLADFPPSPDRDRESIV

SMILES	IC50 (Nav 1.5)	inhibition at 4.9 µM (Nav 1.7 [1])	IC50 (Nav 1.7 [2])	IC50 (Nav 1.7 [1])
O=C(Oc1ccc([N+](=O)[O-])cc1)N1CCOc2cc(S(=O)(=O)Nc3nccs3)ccc21 [Example 197, 4-nitrophenyl 7-(N-(thiazol-2-yl)sulfamoyl)-2H-benzo[b][1,4]oxazine-4(3 H)-carboxylate]	> 10000 nM	27.8%	2530 nM	–
N#Cc1cc(-c2ccccc2F)ccc1N1CCOc2cc(S(=O)(=O)Nc3nccs3)ccc21 [Example 198, 4-(3-cyano-2′-fluoro-[1,1′-biphenyl]-4-yl)-N-(thiazol-2-yl)-3,4-dihydro-2H-benzo[b][1,4]oxazine-7-sulfonamide]	1880 nM	–	627 nM	339 nM
N#Cc1cc(-c2ccc(F)cc2)ccc1N1CCOc2cc(S(=O)(=O)Nc3nccs3)ccc21 [Example 199, 4-(3-Cyano-4′-Fluoro-[1,1′-Biphenyl]-4-Yl)-N-(Thiazol-2-Yl)-3,4-Dihydro-2H-Benzo[B][1,4]Oxazine-7-Sulfonamide]	1220 nM	–	469 nM	387 nM
N#Cc1cc(-c2cccc(F)c2)ccc1N1CCOc2cc(S(=O)(=O)Nc3nccs3)ccc21 [Example 200, 4-(3-Cyano-3′-Fluoro-[1,1′-Biphenyl]-4-Yl)-N-(Thiazol-2-Yl)-3,4-Dihydro-2H-Benzo[B][1,4]Oxazine-7-Sulfonamide]	854 nM	–	144 nM	150 nM
COc1cc(-c2cccc(F)c2)ccc1N1CCOc2cc(S(=O)(=O)Nc3nccs3)ccc21 [Example 201, 4-(3′-Fluoro-3-Methoxy-[1,1′-Biphenyl]-4-Yl)-N-(Thiazol-2-Yl)-3,4-Dihydro-2H-Benzo[B][1,4]Oxazine-7-Sulfonamide]	4830 nM	–	143 nM	773 nM
CC(C)c1ccc(N2CCOc3cc(S(=O)(=O)Nc4nccs4)ccc32)c(C#N)c1 [Example 202, 4-(2-cyano-4-isopropylphenyl)-N-(thiazol-2-yl)-3,4-dihydro-2H-benzo[b][1,4]oxazine-7-sulfonamide]	686 nM	–	93.5 nM	428 nM
CCc1ccc(N2CCOc3cc(S(=O)(=O)Nc4nccs4)ccc32)c(C#N)c1 [Example 203, 4-(2-Cyano-4-Ethylphenyl)-N-(Thiazol-2-Yl)-3,4-Dihydro-2H-Benzo[B][1,4]Oxazine-7-Sulfonamide]	1090 nM	–	87.5 nM	469 nM
O=S(=O)(Nc1nccs1)c1ccc2c(c1)OCCN2c1ccc(C(F)(F)F)cc1C(O)CO (stereo not drawn) [Example 204, 4-(2-(1,2-dihydroxyethyl)-4-(trifluoromethyl)phenyl)-N-(thiazol-2-yl)-3,4-dihydro-2H-benzo[b][1,4]oxazine-7-sulfonamide]	637 nM	–	47.5 nM	343 nM
COc1ccccc1N1CCOc2cc(S(=O)(=O)Nc3nccs3)ccc21 [Example 205, 4-(2-methoxyphenyl)-N-(thiazol-2-yl)-3,4-dihydro-2H-benzo[b][1,4]oxazine-7-sulfonamide]	> 10000 nM	–	38 nM	382 nM
O=S(=O)(Nc1nccs1)c1ccc2c(c1)OCCN2c1ccc(C(F)(F)F)cc1CO [Example 206, 4-(2-(hydroxymethyl)-4-(trifluoromethyl)phenyl)-N-(thiazol-2-yl)-3,4-dihydro-2H-benzo[b][1,4]oxazine-7-sulfonamide]	1140 nM	–	31.5 nM	174 nM
O=S(=O)(Nc1nccs1)c1ccc2c(c1)OCCN2c1ccc(Cl)cc1CC(O)CO (stereo not drawn) [Example 210, 4-(4-Chloro-2-(2,3-Dihydroxypropyl)Phenyl)-N-(Thiazol-2-Yl)-3,4-Dihydro-2H-Benzo[B][1,4]Oxazine-7-Sulfonamide]	6110 nM	–	12.5 nM	226 nM
O=S(=O)(Nc1nccs1)c1ccc2c(c1)OCCN2c1ccc(C(F)(F)F)cc1CCO [Example 211, 4-(2-(2-Hydroxyethyl)-4-(Trifluoromethyl)Phenyl)-N-(Thiazol-2-Yl)-3,4-Dihydro-2H-Benzo[B][1,4]Oxazine-7-Sulfonamide]	471 nM	–	5.5 nM	229 nM
N#Cc1cc(C(F)(F)F)ccc1N1CCOc2cc(S(=O)(=O)Nc3nccs3)c(Cl)cc21 [Example 212, 6-Chloro-4-(2-Cyano-4-(Trifluoromethyl)Phenyl)-N-(Thiazol-2-Yl)-3,4-Dihydro-2H-Benzo[B][1,4]Oxazine-7-Sulfonamide]	736 nM	–	21.3 nM	373 nM
COc1nc(C(F)(F)F)ccc1N1CCOc2cc(S(=O)(=O)Nc3nccs3)ccc21 [Example 214, 4-(2-Methoxy-6-(Trifluoromethyl)Pyridin-3-Yl)-N-(Thiazol-2-Yl)-3,4-Dihydro-2H-Benzo[B][1,4]Oxazine-7-Sulfonamide]	> 10000 nM	–	68.5 nM	800 nM
N#Cc1cc(C(F)(F)F)ccc1N1CCOc2cc(S(=O)(=O)Nc3nccs3)c(F)cc21 [Example 215, 4-(2-Cyano-4-(Trifluoromethyl)Phenyl)-6-Fluoro-N-(Thiazol-2-Yl)-3,4-Dihydro-2H-Benzo[B][1,4]Oxazine-7-Sulfonamide]	203 nM	–	9.86 nM	183 nM
N#Cc1cc(C(F)(F)F)ccc1N1CCOc2c1ccc(S(=O)(=O)Nc1nccs1)c2F [Example 216, 4-(2-Cyano-4-(Trifluoromethyl)Phenyl)-8-Fluoro-N-(Thiazol-2-Yl)-3,4-Dihydro-2H-Benzo[B][1,4]Oxazine-7-Sulfonamide]	5730 nM	–	34 nM	516 nM
COc1cc(C#N)ccc1N1CCOc2cc(S(=O)(=O)Nc3nccs3)c(F)cc21 [Example 217, 4-(4-Cyano-2-Methoxyphenyl)-6-Fluoro-N-(Thiazol-2-Yl)-3,4-Dihydro-2H-Benzo[B][1,4]Oxazine-7-Sulfonamide]	1310 nM	–	8 nM	207 nM
N#Cc1cc(C(F)(F)F)ccc1N1CCOc2cc(S(=O)(=O)Nc3nccs3)cc(F)c21 [Example 218, 4-(2-Cyano-4-(Trifluoromethyl)Phenyl)-5-Fluoro-N-(Thiazol-2-Yl)-3,4-Dihydro-2H-Benzo[B][1,4]Oxazine-7-Sulfonamide]	385 nM	–	193 nM	1990 nM
COc1cc(C#N)ccc1CN1CCOc2cc(S(=O)(=O)Nc3nccs3)ccc21 [Example 219, 4-(4-Cyano-2-Methoxybenzyl)-N-(Thiazol-2-Yl)-3,4-Dihydro-2H-Benzo[B][1,4]Oxazine-7-Sulfonamide]	> 10000 nM	26.2%	5190 nM	–
O=S(=O)(Nc1nccs1)c1ccc2c(c1)OCCN2Cc1ccccc1 [Example 220, 4-Benzyl-N-(Thiazol-2-Yl)-3,4-Dihydro-2H-Benzo[B][1,4]Oxazine-7-Sulfonamide]	> 10000 nM	–	864 nM	17200 nM
Cc1onc(-c2ccccc2)c1CN1CCOc2cc(S(=O)(=O)Nc3nccs3)ccc21 [Example 221, 4-((5-Methyl-3-Phenylisoxazol-4-Yl)Methyl)-N-(Thiazol-2-Yl)-3,4-Dihydro-2H-Benzo[B][1,4]Oxazine-7-Sulfonamide]	> 10000 nM	–	564 nM	3030 nM
O=S(=O)(Nc1nccs1)c1ccc2c(c1)OCCN2Cc1c[nH]c2cccnc12 [Example 222, 4-((1H-Pyrrolo[3,2-B]Pyridin-3-Yl)Methyl)-N-(Thiazol-2-Yl)-3,4-Dihydro-2H-Benzo[B][1,4]Oxazine-7-Sulfonamide]	> 10000 nM	33.8%	3430 nM	–
Cc1cc(C#N)ccc1N1CCOc2cc(S(=O)(=O)Nc3nccs3)ccc21 [Example 226, 4-(4-Cyano-2-Methylphenyl)-N-(Thiazol-2-Yl)-3,4-Dihydro-2H-Benzo[B][1,4]Oxazine-7-Sulfonamide]	> 10000 nM	–	36.5 nM	740 nM

Source: patent publication US9346798B2, “Dihydrobenzoxazine and tetrahydroquinoxaline sodium channel inhibitors” (AMGEN INC., priority 2012, dated 2016)
